{"source": "patent US7375107B2", "about": "(priority 2003, dated 2008)", "data": [{"test_system": "not given", "test": "not given", "settings": "not given", "units": {"melting point": "°C"}, "values": [{"smiles": "CC(C)(C)OC(=O)N=C(NCCCOCCCNC(=N)NC(=O)c1nc(Cl)c(N)nc1N)NC(=O)OC(C)(C)C", "melting point": "89 to 93"}]}, {"molecular_target": "T1, epithelial sodium channels (ENaC), airway epithelial monolayers (Canis lupus familiaris, UniProt A0A8I3MKE6+A0A8I3Q679+Q95165)", "T1 sequence (A0A8I3Q679 1-649)": "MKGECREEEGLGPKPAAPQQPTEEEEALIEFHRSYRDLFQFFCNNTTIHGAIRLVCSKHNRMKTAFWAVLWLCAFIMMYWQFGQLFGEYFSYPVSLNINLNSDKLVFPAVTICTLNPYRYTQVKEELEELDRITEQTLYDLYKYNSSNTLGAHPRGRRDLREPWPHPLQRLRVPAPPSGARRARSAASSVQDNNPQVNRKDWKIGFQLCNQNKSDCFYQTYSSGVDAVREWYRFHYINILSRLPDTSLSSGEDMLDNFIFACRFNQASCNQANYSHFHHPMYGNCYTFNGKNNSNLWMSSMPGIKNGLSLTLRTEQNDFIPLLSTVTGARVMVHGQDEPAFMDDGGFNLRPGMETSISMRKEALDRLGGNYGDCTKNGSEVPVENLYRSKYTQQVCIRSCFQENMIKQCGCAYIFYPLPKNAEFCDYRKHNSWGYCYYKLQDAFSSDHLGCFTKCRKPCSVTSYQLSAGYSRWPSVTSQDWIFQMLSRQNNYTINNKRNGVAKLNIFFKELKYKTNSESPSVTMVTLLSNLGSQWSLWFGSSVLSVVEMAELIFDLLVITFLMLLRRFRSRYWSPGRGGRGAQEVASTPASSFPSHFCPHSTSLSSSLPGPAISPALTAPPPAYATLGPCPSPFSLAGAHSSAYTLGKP", "T1 sequence (Q95165 1-641)": "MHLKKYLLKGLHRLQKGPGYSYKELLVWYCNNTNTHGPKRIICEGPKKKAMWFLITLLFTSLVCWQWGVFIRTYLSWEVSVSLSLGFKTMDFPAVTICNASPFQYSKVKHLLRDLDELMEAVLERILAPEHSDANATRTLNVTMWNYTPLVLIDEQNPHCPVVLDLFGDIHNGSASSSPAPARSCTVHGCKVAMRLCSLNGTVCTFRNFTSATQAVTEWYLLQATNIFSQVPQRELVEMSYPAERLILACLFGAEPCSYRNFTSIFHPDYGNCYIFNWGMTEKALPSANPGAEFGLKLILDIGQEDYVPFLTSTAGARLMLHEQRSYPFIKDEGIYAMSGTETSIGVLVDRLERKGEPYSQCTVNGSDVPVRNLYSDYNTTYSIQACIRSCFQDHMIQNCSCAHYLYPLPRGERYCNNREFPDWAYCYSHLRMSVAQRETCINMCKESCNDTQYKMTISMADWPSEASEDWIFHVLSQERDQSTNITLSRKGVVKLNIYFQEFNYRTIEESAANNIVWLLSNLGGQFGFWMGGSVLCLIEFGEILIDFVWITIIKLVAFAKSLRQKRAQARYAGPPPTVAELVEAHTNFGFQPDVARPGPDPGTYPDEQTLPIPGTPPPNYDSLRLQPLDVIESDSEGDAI", "T1 sequence (A0A8I3MKE6 1-646)": "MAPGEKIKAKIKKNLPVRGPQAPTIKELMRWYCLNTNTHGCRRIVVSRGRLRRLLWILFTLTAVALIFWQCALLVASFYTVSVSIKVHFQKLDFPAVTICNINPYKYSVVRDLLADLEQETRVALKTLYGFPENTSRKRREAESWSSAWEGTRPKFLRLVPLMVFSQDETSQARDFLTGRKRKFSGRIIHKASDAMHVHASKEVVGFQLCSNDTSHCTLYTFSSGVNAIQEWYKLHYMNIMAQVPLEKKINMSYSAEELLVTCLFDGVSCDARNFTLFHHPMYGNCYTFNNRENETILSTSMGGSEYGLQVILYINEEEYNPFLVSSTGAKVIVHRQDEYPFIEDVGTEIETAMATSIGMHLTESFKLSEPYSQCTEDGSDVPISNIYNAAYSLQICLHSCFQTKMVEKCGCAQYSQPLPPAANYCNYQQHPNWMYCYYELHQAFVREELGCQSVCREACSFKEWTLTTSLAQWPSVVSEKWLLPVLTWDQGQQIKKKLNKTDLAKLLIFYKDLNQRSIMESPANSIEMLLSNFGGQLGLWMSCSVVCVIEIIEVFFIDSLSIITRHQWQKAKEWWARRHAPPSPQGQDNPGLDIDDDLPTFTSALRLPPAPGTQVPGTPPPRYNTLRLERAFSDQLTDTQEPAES", "test": "Sodium channel blocking activity: lumenal drug inhibition of airway epithelial sodium currents (short circuit current, ISC) in Ussing chambers", "type": "cell-based, canine", "settings": "relative potency for PSA 4022 = 100 using EC50 from PSA 4022 in same run", "description": "(§1) One assay used to assess mechanism of action and/or potency of the compounds of the present invention involves the determination of lumenal drug inhibition of airway epithelial sodium currents measured under short circuit current (ISC) using airway epithelial monolayers mounted in Ussing chambers. Cells obtained from freshly excised human, dog, sheep or rodent airways are seeded onto porous 0.4 micron Snapwell™ Inserts (CoStar), cultured at air-liquid interface (ALI) conditions in hormonally defined media, and assayed for sodium transport activity (ISC) while bathed in Krebs Bicarbonate Ringer (KBR) in Using chambers. All test drug additions are to the lumenal bath with half-log dose addition protocols (from 1×10^−11 M to 3×10^−5 M), and the cumulative change in ISC (inhibition) recorded. All drugs are prepared in dimethyl sulfoxide as stock solutions at a concentration of 1×10^−2 M and stored at −20° C. Eight preparations are typically run in parallel; two preparations per run incorporate amiloride and/or benzamil as positive controls. After the maximal concentration (5×10^−5 M) is administered, the lumenal bath is exchanged three times with fresh drug-free KBR solution, and the resultant ISC measured after each wash for approximately 5 minutes in duration. Reversibility is defined as the percent return to the baseline value for sodium current after the third wash. All data from the voltage clamps are collected via a computer interface and analyzed off-line.\n(§2) Dose-effect relationships for all compounds are considered and analyzed by the Prism 3.0 program. IC50 values, maximal effective concentrations, and reversibility are calculated and compared to amiloride and benzamil as positive controls.\n(§3) Treatment Protocol (Assessment of Activity at t-4 hours): The following variation of the standard protocol was used to assess the durability of response following a single exposure to vehicle control (distilled water), positive control compounds (amiloride or benzamil), or investigational agents. At time zero, vehicle control (distilled water), positive control (amiloride), or investigational compounds were aerosolized from a 4 ml volume using a Pari LC JetPlus nebulizer to free-breathing animals. The nebulizer was driven by compressed air with a flow of 8 liters per minute. The time to deliver the solution was 10 to 12 minutes. Animals were restrained in an upright position in a specialized body harness for 4 hours. At the end of the 4-hour period animals received a single dose of aerosolized ^99mTc-Human serum albumin (3.1 mg/ml; containing approximately 20 mCi) from a Raindrop Nebulizer. Animals were extubated immediately following delivery of the total dose of radio-tracer. A baseline deposition image was obtained immediately after radio-aerosol administration. Serial images of the lung were obtained at 15-minute intervals during the first 2 hours after administration of the radio-tracer (representing hours 4 through 6 after drug administration) and hourly for the next 2 hours after dosing for a total observation period of 4 hours. A washout period of at least 7 days separated dosing sessions with different experimental agents. Statistics: Data were analyzed using SYSTAT for Windows, version 5. Data were analyzed using a two-way repeated ANOVA (to assess overall effects), followed by a paried t-test to identify differences between specific pairs. Significance was accepted when P was less than or equal to 0.05. […] The compounds can be further tested for potency in canine bronchial epithelia using the in vitro assay described above. The results for the compounds of the present invention are reported as fold-enhancement values relative to amiloride.\n(§4) Sodium Channel Blocking Activity of Selected Alaphatic Pyrazinoylguanidines.", "values": [{"smiles": "N=C(NCCCCCCCCCCCN)NC(=O)c1nc(Cl)c(N)nc1N", "note": "[compound 23682]", "Fold Amiloride** (PSA 4022 = 100)": "51 ± 15 (n = 3)"}, {"smiles": "N=C(N)NCCCCCCCCCCCCNC(=N)NC(=O)c1nc(Cl)c(N)nc1N", "note": "[compound 23683]", "Fold Amiloride** (PSA 4022 = 100)": "68 ± 48 (n = 6)"}, {"smiles": "N=C(NCCCCCCCCCCN)NC(=O)c1nc(Cl)c(N)nc1N", "note": "[compound 19487]", "Fold Amiloride** (PSA 4022 = 100)": "37 ± 1 (n = 4)"}, {"smiles": "N=C(NCCCCCCCCCCCCN)NC(=O)c1nc(Cl)c(N)nc1N", "note": "[compound 23609]", "Fold Amiloride** (PSA 4022 = 100)": "66 ± 36 (n = 4)"}, {"smiles": "N=C(N)NCCCCCCCCCNC(=N)NC(=O)c1nc(Cl)c(N)nc1N", "note": "[compound 19006]", "Fold Amiloride** (PSA 4022 = 100)": "11 ± 2 (n = 3)"}, {"smiles": "CC(C)(C)OC(=O)NCCCOCCCNC(=N)NC(=O)c1nc(Cl)c(N)nc1N", "note": "[compound 19333]", "Fold Amiloride** (PSA 4022 = 100)": "7 ± 2 (n = 4)"}, {"smiles": "N=C(N)NCCCCCCCCCCCNC(=N)NC(=O)c1nc(Cl)c(N)nc1N", "note": "[compound 23991]", "Fold Amiloride** (PSA 4022 = 100)": "20 ± 12 (n = 4)"}, {"smiles": "N=C(NCCCCCCCN)NC(=O)c1nc(Cl)c(N)nc1N", "note": "[compound 18705]", "Fold Amiloride** (PSA 4022 = 100)": "8 ± 2 (n = 4)"}, {"smiles": "N=C(NCCCCCCCCCN)NC(=O)c1nc(Cl)c(N)nc1N", "note": "[compound 19335]", "Fold Amiloride** (PSA 4022 = 100)": "19 ± 7 (n = 4)"}, {"smiles": "CC(C)(C)OC(=O)NCCCCCCCCNC(=N)NC(=O)c1nc(Cl)c(N)nc1N", "note": "[compound 19156]", "Fold Amiloride** (PSA 4022 = 100)": "18 ± 2 (n = 2)"}, {"smiles": "CC(C)(C)OC(=O)NCCCCCCCCCNC(=N)NC(=O)c1nc(Cl)c(N)nc1N", "note": "[compound 19484]", "Fold Amiloride** (PSA 4022 = 100)": "12 (n = 1)"}, {"smiles": "CC(C)(C)OC(=O)NCCCCCCCCCCCCNC(=N)NC(=O)c1nc(Cl)c(N)nc1N", "note": "[compound 23776]", "Fold Amiloride** (PSA 4022 = 100)": "7 (n = 1)"}, {"smiles": "N=C(N)NCCCCCCCCCCNC(=N)NC(=O)c1nc(Cl)c(N)nc1N", "note": "[compound 23608]", "Fold Amiloride** (PSA 4022 = 100)": "41 ± 29 (n = 2)"}, {"smiles": "N=C(NCCCCCCCCN)NC(=O)c1nc(Cl)c(N)nc1N", "note": "[compound 19336]", "Fold Amiloride** (PSA 4022 = 100)": "12 ± 3 (n = 3)"}, {"smiles": "N=C(N)NCCCCCCCNC(=N)NC(=O)c1nc(Cl)c(N)nc1N", "note": "[compound 19155]", "Fold Amiloride** (PSA 4022 = 100)": "8 ± 7 (n = 3)"}, {"smiles": "N=C(N)NCCCCCCCCNC(=N)NC(=O)c1nc(Cl)c(N)nc1N", "note": "[compound 19604]", "Fold Amiloride** (PSA 4022 = 100)": "63 ± 61 (n = 4)"}, {"smiles": "N=C(NCCCCCCN)NC(=O)c1nc(Cl)c(N)nc1N", "note": "[compound 18706]", "Fold Amiloride** (PSA 4022 = 100)": "4 ± 1 (n = 4)"}]}, {"molecular_target": "T1, epithelial sodium channels (ENaC), airway epithelial monolayers", "test": "Sodium channel blocking activity: lumenal drug inhibition of airway epithelial sodium currents (short circuit current, ISC) in Ussing chambers", "type": "cell-based, canine", "settings": "sodium channel blocking activity; short circuit current in airway epithelial monolayers", "description": "as §1, §2, §3, §4", "units": {"EC50": "nM"}, "values": [{"smiles": "N=C(NCCCCCCCCCN)NC(=O)c1nc(Cl)c(N)nc1N", "note": "[compound 19335]", "EC50": "36 ± 7"}]}]}
